# Data published in patent US20070123699A1, “Peptide conjugate useful for cell nucleus molecular imaging and tumor therapy” (priority 2002, published 2007).
# How the values were obtained:
# [1] = test system: DU-145 prostate cancer cells; test: MRI: DU-145 cell uptake and efflux of Gd^3+ conjugates (T1-weighted signal, relaxivity); format: cell-based, human
# Method: (I) MRI: DU-145 Cell Uptake of the CNN—Gd^3+-Complex and CNRN—Gd^3+-Complex Compared to that of Magnevist®
# DU-145 cells were harvested and divided into tubes (Falcon®, Becton Dickinson USA, Cat. No.: 35.2096) (Cell No.: 40×10^6 cells per tube). The CNN—Gd^3+-complex (Table 1, #1552a), the CNRN—Gd^3+-complex (Table 1, #1552b) and the Magnevist® were each dissolved in MEM in a concentration of 0.5 mM and were then incubated for 10, 20, 30 minutes up to 3 hours. […]
# MR imaging used a 1.5-T whole body Siemens Magnetom Vision Plus with a standard circular polarized head coil. […] T1 and T2 relaxation-times within the pellets of the three tubes (CNN—Gd^3+, CNRN—Gd^3+, Magnevist) were measured to evaluate the intracellular relaxivity of the respective contrast agents (R=1/T1). The T1-relaxation time was measured by means of an inversion-recovery-sequence (TR: 5000 ms/TE: 76 ms/TI: 25-4000 ms, 17 different TI-values, scan-time 15×25 sec, FOV: 160 mm×160 mm, Matrix: 132×256, slice thickness: 7 mm, pixel size: 1.21×0.63 mm). T2 relaxation-time was measured by a multi-echo-sequence (TR: 5000 ms/16 TE-values: 30 ms-245 ms, FOV: 250 mm×250 mm, Matrix: 256×256, slice thickness: 5 mm, pixel size: 0.98×0.98 mm, scan time: 21 min 21 sec). […]
# [2] = i.v. administered alkylating drug, brain tumor; cited from earlier work
SMILES,"MRI signal change above that of DU-145 cells incubated solely in MEM ([1]; DU-145 cells, 0.5 mM, T1-weighted MRI)",relaxivity R (R=1/T1) within the DU-145 cell pellets ([1]; after incubation with contrast agent 0.5 mM),fraction of drug in the blood passing the blood-brain barrier [2]
"CNC[C@H](O)[C@@H](O)[C@H](O)[C@H](O)CO.CNC[C@H](O)[C@@H](O)[C@H](O)[C@H](O)CO.O=C([O-])CN(CCN(CC(=O)[O-])CC(=O)O)CCN(CC(=O)[O-])CC(=O)O.[Gd+3] [Magnevist, reference compound]",no signal change,0.00069,–
Cn1nnc2c(C(N)=O)ncn2c1=O [Temodal],–,–,about 30%
